Measurements from patent US7820642B2, “Nandrolone 17β-carbonates” (The United States of America as represented by the …, priority 2005, dated 2010).
“Also recorded” adds a separate entry of the source.

Legend:
Assay type in all cases: in vivo, rat
[1] = test system: castrate Sprague-Dawley male rats; experiment: Androgenic activity, Hershberger test (ventral prostate weight)
Method: The androgenic activity was tested as follows (see, Hershberger et al., Proc. Soc. Exptl. Biol. Med., 83: 175-180 (1953)). Immature (approximately 21 day old) male rats of the Sprague-Dawley strain were orchidectomized under METOFANE® anesthesia and randomly assigned to groups of ten animals for each dose level of test material and vehicle controls. Animals were maintained under standard conditions of housing and had free access to food and water. Illumination was controlled for 14-hour periods of light and 10 hours of darkness. Test compounds were dissolved in 10% ethanol/sesame oil and administered by gavage (oral) or subcutaneous injection daily for seven consecutive days starting on the day of surgery. Animals were sacrificed 24 hours after the last dose and the ventral prostate and seminal vesicles excised, cleaned of fat and connective tissue, blotted on moist filter paper and weighed to the nearest 0.1 mg. Ventral prostate weight was used as the endpoint because ventral prostate is the more sensitive organ to androgenic stimulation.
Statistical analysis was performed by conventional methods using a PROPHET data management system operating on SUN Microsystems OS 4.1.1 (see e.g., Bliss, Cl (1952) The Statistics of Bioassay, New York, Academic Press; Hollister, C (1988), Nucleic Acids Research, 16:1873-1875.
Each data point represents the mean (n=10) and standard error of the mean (SEM) prostate weight for each dose level. The potency ratio and 95% confidence index are set forth below.

[2] = test system: castrate Sprague-Dawley male rats; experiment: Duration of androgenic activity after a single subcutaneous injection (ventral prostate weight, AUC); details: for AUC of ventral prostate weight (duration of androgenic activity): 14 weeks
Method: Duration of androgenic activity was determined as follows. Immature (22 days of age) male rats of the Sprague-Dawley CD strain were orchidectomized under METOFANE anesthesia and randomly assigned to groups of forty or more animals. Animals were maintained under standard conditions of housing and had free access to food and water. Illumination was controlled for 14-hour periods of light and 10 hours of darkness. Animals received a single subcutaneous injection of 0.6 mg of test material in aqueous suspending vehicle (ASV) and/or an oily vehicle (10% ethanol/sesame oil, sesame oil containing 5 mg/ml chlorobutanol as a preservative or ethyl oleate) on the day of surgery. Controls received vehicle alone. Testosterone enanthate in sesame oil was used as a standard. In cases where the test material was not solid at room temperature, i.e., a wax or oil, 10% ethanol/sesame oil or ethyl oleate was used as a vehicle. Five rats from each group were sacrificed at weekly or biweekly intervals and seminal vesicle and ventral prostate glands were excised, cleaned of adherent fat and connective tissue and weighed to the nearest 0.1 mg. Ventral prostate weight was used as the endpoint because it is the more sensitive organ to androgenic stimulation. Area under the curve (AUC) was calculated by the trapezoidal rule.
Each data point represents the mean (n=5) and standard error of the mean (SEM) prostate weight for each time period. […] In FIG. 8, the data for 1.2 mg dose groups are shown together with historical data for testosterone undecanoate in aqueous suspension and testosterone enanthate in sesame oil as standards. Both testosterone undecanoate and testosterone enanthate are commercially available.

[3] = Serum levels of dimethandrolone (CDB-1321) and immunoreactive metabolites by radioimmunoassay; design: AUC of serum concentration of dimethandrolone and immunoreactive metabolites: unit not given here; details: n=5, FIG. 9
Method: Serum levels of testosterone and CDB-1321 were determined as follows. Rats from a duration of androgenic activity study were exsanguinated at autopsy, serum prepared by allowing blood to clot at room temperature and the sample frozen for subsequent radioimmunoassay. A radioimmunoassay for the free alcohol, 7a, 11β-dimethyl-19-nortestosterone, was developed using antisera generated in rabbits against the 3-carboxymethyloxime-BSA conjugate and employing the corresponding histamine conjugate for iodination as tracer.

[4] = test system: luteinizing hormone (rLH); experiment: Serum rLH in castrate male rats
Method: FIG. 14 depicts the serum levels of rLH as a function of time for groups 2 and 4 of the animals. Serum rLH were measured in the blood from castrate male rats following fourteen daily 12 mg/kg oral doses of CDB-4719A (dimethandrolone 17β-decylcarbonate, filled circles, group 2) or CDB-4521C (dimethandrolone 17β-undecanoate, open triangles, group 4) in 10% ethanol/sesame oil on days 0-13. Samples from weeks −1 to 6 or from weeks 7 to 9 and repeats were assayed as described in the protocols MEL-480AD using [^125I]-rLH or MEL-480AE, AG using [^125I]-rLH. The limit of detection shown as dotted line, or EC90, was the mean of 0.13, 0.14, or 0.16 in the first assay and 0.17, 0.22, or 0.21 ng/ml in the second series of assays based on 200 μl of serum per tube.
FIG. 15 depicts the serum levels of rLH as a function of time for groups 1 and 3 of the animals. Serum rLH were measured in the blood from castrate male rats following a single 12 mg/kg subcutaneous injection of CDB-4719A (dimethandrolone 17β-decylcarbonate, filled circles, group 1) or CDB-4521C (dimethandrolone 17β-undecanoate, open triangles, group 3) in an aqueous suspending vehicle on day 0. Samples from weeks −1 to 6 or from weeks 7 to 22 and repeats were assayed as described in the protocols MEL-480AD using [^125I]-rLH or MEL-480AE, AG, AH using [^125I]-rLH. The limit of detection shown as dotted line, or EC90, was the mean of 0.13, 0.14, or 0.16 in the first assay and 0.17, 0.22, or 0.21 ng/ml in the second series of assays based on 200 μl of serum per tube.
Carbonates of the invention, in embodiments, can be used to suppress luteinizing hormone in a mammal for extended periods of time. […] CDB-4719A (dimethandrolone 17β-decylcarbonate) was administered to castrate male rats, daily at 12 mg/kg oral doses, and CDB-4521C (dimethandrolone 17β-undecanoate) was administered in 10% ethanol/sesame oil, on days 0-13. […] This observation could have advantageous clinical implications, for example, in obtaining sustained suppression of the luteinizing hormone or hormone replacement therapy. In addition, this could have an advantage by providing a facile treatment using oral compositions such as tablets or capsules of the carbonates of the invention in suppressing hormone levels. Such treatment can be advantageous relative to a treatment involving parenteral (e.g., subcutaneous) administration of a drug such as the ester drug. Patient compliance is better with oral formulations than injections.
FIG. 15 provides a comparison between CDB-4719A (dimethandrolone 17β-decylcarbonate) and CDB-4521C (dimethandrolone 17β-undecanoate). A single dose (12 mg/kg) of the compound was administered to castrate male rats by subcutaneous injection in an aqueous suspending vehicle on day 0. The serum rLH concentration was monitored over a 22-week period and beyond.

[5] = 1.2 mg, 14-week observation period
[6] = single subcutaneous injection of 0.6 mg in aqueous suspending vehicle
[7] = single subcutaneous injection of 1.2 mg in aqueous suspending vehicle
[8] = fourteen daily 12 mg/kg oral doses in 10% ethanol/sesame oil, days 0-13, FIG. 14

## CCCCCCCCCCOC(=O)O[C@H]1CC[C@H]2[C@H]3[C@H]([C@@H](C)C[C@]12C)[C@H]1CCC(=O)C=C1C[C@H]3C [CDB-4719, 17β-Decyloxycarbonyloxy-7α,11β-dimethylestr-4-en-3-one]
[1]; oral, daily for 7 days in 10% ethanol/sesame oil, CDB 110 (methyltestosterone) = 1.000 assigned, FIG. 5, ranges did not pass all significance tests
  Androgenic activity Potency Ratio: five to nine times
[1]; oral, daily for 7 days in 10% ethanol/sesame oil, CDB 110 (methyltestosterone) = 1.000 assigned, FIG. 5, ranges did not pass all significance tests, listed as 4719
  Androgenic activity Potency Ratio: 5.486-8.992^1,2
[1]; oral, direct comparison of CDB-4718 and CDB-4719
  Androgenic activity Potency Ratio, 4718 vs. 4719: 3.016
[1]; subcutaneous injection, daily for 7 days, CBD-111 (testosterone) = 1.000 assigned, FIG. 6, footnote 2 values did not pass all significance tests
  Androgenic activity Potency Ratio: no more potent than testosterone standard
[1]; subcutaneous injection, daily for 7 days, CBD-111 (testosterone) = 1.000 assigned, FIG. 6, footnote 2 values did not pass all significance tests, listed as 4719
  Androgenic activity Potency Ratio: 0.64
[2]; [5]
  AUC relative to testosterone enanthate in sesame oil: more than three times greater
  AUC relative to testosterone undecanoate: more than five times greater
[2]; single subcutaneous injection in aqueous vehicle
  Duration of androgenic activity (in words): far more potent than testosterone; also recorded: most dramatic increase and maintenance of ventral prostate weight
[2]; [6]
  AUC of ventral prostate weight (duration of androgenic activity): 1417 mg·week
[2]; [7]
  AUC of ventral prostate weight (duration of androgenic activity): 2764 mg·week
[3]; [6]
  AUC of serum concentration of dimethandrolone and immunoreactive metabolites: 4151
[3]; [7]
  AUC of serum concentration of dimethandrolone and immunoreactive metabolites: 6010
[4]; [8]
  Serum rLH after administration was discontinued: remained suppressed for several weeks
  Serum rLH during administration: remained suppressed
[4]; single 12 mg/kg subcutaneous injection in aqueous suspending vehicle on day 0, FIG. 15
  Serum rLH up to 16 weeks post administration: remains suppressed
[4]; single 12 mg/kg subcutaneous injection in aqueous suspending vehicle on day 0, monitored over 22 weeks, FIG. 15
  Serum rLH after 16 weeks: remained suppressed even at week 22
